Laboratory results from patent US10946016B2, “Solid forms of an epidermal growth factor receptor kinase inhibitor” (Celgene CAR LLC, priority 2012, dated 2021).
“Also recorded” adds a separate entry of the source.

Experiments:
[1] = test system: human non-small cell lung cancer cell; assay: Non-small cell lung cancer cell proliferation in vitro; assay type: cell-based
[2] = test system: human non-small cell lung cancer cell; assay: Non-small cell lung cancer cell proliferation in vivo
mutant EGFR kinase = assay: Enzymatic and cellular assays of EGFR kinase inhibition; assay type: biochemical
[3] = Stability at 40° C./75% RH for 1 week and 2 weeks (XRPD and HPLC); assay type: physicochemical; settings: open container
Description: Samples of each form were exposed to an environment of 40° C./75% RH for 1 week and 2 week periods to determine stability. Resulting solids were analysed by XRPD and HPLC to establish if any changes had occurred.

[4] = Aqueous solubility: slurries in deionised water, HPLC; assay type: physicochemical; settings: slurry in deionised water shaken ca. 24 hours; for aqueous solubility: assessment in words
Description: Slurries of all each polymorphic form were created in deionised water and shaken for ca. 24 hours. The resulting solid was then analysed by HPLC to determine the concentration of material dissolved.

[5] = Competitive slurries at ambient and 60° C. (polymorph stability studies); assay type: physicochemical; settings: slurrying at ambient and 60° C.
Description: The results from the competitive slurries carried out at ambient (ca. 22° C.) and 60° C. are tabulated below.

[6] = Dynamic vapour sorption (DVS) with post DVS XRPD; assay type: physicochemical
Description: For dynamic vapour sorption (DVS), approximately 10 mg of sample was placed into a wire mesh vapour sorption balance pan and loaded into a DVS-1 dynamic vapour sorption balance by Surface Measurement Systems. The sample was subjected to a ramping profile from 20-90% relative humidity (RH) at 10% increments, maintaining the sample at each step until a stable weight had been achieved (99.5% step completion). After completion of the sorption cycle, the sample was dried using the same procedure, but all the way down to 0% RH and finally taken back to the starting point of 20% RH. The weight change during the sorption/desorption cycles were plotted, allowing for the hygroscopic nature of the sample to be determined.

[7] = XRPD after heating or drying (solid form conversion); assay type: physicochemical
Description: X-ray powder diffraction (XRPD) analysis was carried out on a Siemens D5000, scanning the samples between 3 and 30 or 50° 2-theta. For samples <100 mg, ca. 5-10 mg of sample was gently compressed onto a glass slide which fitted into the sample holder. For samples >100 mg, ca. 100 mg of sample was gently compressed into a plastic sample holder, so that the sample surface was smooth and just above the level of the sample holder. Measurements were made as follows: In order to determine the relationship between Forms A and B, a sample of Form B was heated to 120° C. and then XRPD analysis was carried out. […] To determine whether Form C remains the same after losing the solvent present, a sample of Form C was heated to 120° C. (i.e., just past the temperature at which the solvent is removed) and then XRPD analysis was carried out. […] In order to determine whether Form E remains the same after losing the solvent present, a sample of Form E was heated to 120° C. (i.e., just past the temperature at which the solvent is lost) and then XRPD analysis was carried out. […] In order to determine whether Form F remains the same after losing the solvent present, a sample of Form F was heated to 120° C. (i.e., just past the temperature at which the solvent is lost) and then XRPD analysis was carried out. […] To examine whether Form H changes to Form A after heating to 115° C. (point after the solvent loss), the Form H material was heated to 115° C. and XRPD analysis and DSC analysis were then carried out. […] The DSC analysis (FIG. 49) indicated overlapping endotherms between ca. 115-135° C., followed by an exotherm at peak 143.9° C., likely indicating a polymorphic transition. A final endotherm was present at onset 202.7° C. (peak 206.6° C.) corresponding with the Form A melt.

[8] = TGA of dehydrated material after standing on the bench (water pick-up); assay type: physicochemical; settings: heated to 115° C., then on the bench ca. 1 hour at ambient
Description: To test whether Form H picks up water after desolvating/dehydrating the material by heating to 115° C., a further test was carried out whereby Form H was heated to 115° C. in a TGA pan. The sample was then removed from the TGA pan and allowed to sit on the bench for ca. 1 hour. After 1 hour, another TGA was carried out up to 115° C. […] (FIG. 51).

[9] = 7 day stability studies of Form I at 25° C., 80° C., 40° C./75% RH (open and closed); assay type: physicochemical
Description: Approximately 15 mg of Form I was placed separately into vials and then exposed to 25° C., 80° C. and 40° C./75% RH environments (open and closed vials) for 1 week to determine stability. The resulting solids were analysed by XRPD and HPLC to establish if any changes had occurred. Results are presented in Tables 2 and 3 and FIGS. 62 and 63.

[10] = Thermodynamic solubility studies at various pH; assay type: physicochemical; settings: for solubility at 24 h: thermodynamic from solid
Description: Slurries of Form I were created in media of various pH (pH 1; pH 3; pH 4.5 and pH 6.6) and shaken for ca. 24 hours. After 24 hours, the slurries were filtered and the solution analysed by HPLC in order to determine the solubility at the various pH levels. For the buffer solutions, KCl/HCl was used for pH 1 and citrate/phosphate combinations for pH 3, 4.5 and 6.6 (10 mM). The pH of the solutions was also measured prior to HPLC analysis. XRPD analysis was carried out on the remaining solids after 24 hours of shaking.

[11] = ambient under vacuum 7 days, then 2 days at 40° C.
[12] = closed container, 40° C./75% RH

C=CC(=O)Nc1cccc(Nc2nc(Nc3ccc(N4CCN(C(C)=O)CC4)cc3OC)ncc2C(F)(F)F)c1 [Compound 1, N-(3-(2-(4-(4-acetylpiperazin-1-yl)-2-methoxyphenylamino)-5-(trifluoromethyl)pyrimidin-4-ylamino)phenyl)acrylamide]
inhibition of cell proliferation [1]: inhibit human non-small cell lung cancer cell proliferation | inhibition of cell proliferation [2]: inhibit human non-small cell lung cancer cell proliferation | selectivity for mutant EGFR as compared to wild-type EGFR (mutant EGFR kinase): selective inhibitor of at least one mutation of EGFR | inhibition of mutant EGFR kinase (mutant EGFR kinase; enzymatic and cellular assays): selective covalent, irreversible inhibition of mutant EGFR kinase

C=CC(=O)Nc1cccc(Nc2nc(Nc3ccc(N4CCN(C(C)=O)CC4)cc3OC)ncc2C(F)(F)F)c1 [Form A, N-(3-(2-(4-(4-acetylpiperazin-1-yl)-2-methoxyphenylamino)-5-(trifluoromethyl)pyrimidin-4-ylamino)phenyl)acrylamide]
HPLC purity after storage ([3]; 1 week): ca. 97.5% | XRPD analysis after storage ([3]; 1 week): still be consistent with Form A, with some loss in crystallinity | HPLC purity after storage ([3]; 2 week): ca. 96.3% | XRPD analysis after storage ([3]; 2 week): still be consistent with Form A, however, it became poorly crystalline | detection by HPLC analysis for the aqueous solubility [4]: could not be detected | aqueous solubility [4]: poor | relative polymorph stability [5]: likely the more stable form in comparison with Form B | Post DVS XRPD (solid form) [6]: remained Form A | hygroscopicity (DVS) [6]: non-hygroscopic | DVS water uptake ([6]; between 20 and 70% RH): 0.87%

C=CC(=O)Nc1cccc(Nc2nc(Nc3ccc(N4CCN(C(C)=O)CC4)cc3OC)ncc2C(F)(F)F)c1 [Form F, N-(3-(2-(4-(4-acetylpiperazin-1-yl)-2-methoxyphenylamino)-5-(trifluoromethyl)pyrimidin-4-ylamino)phenyl)acrylamide]
HPLC purity after storage ([3]; 1 week): ca. 96.8% | XRPD analysis after storage ([3]; 1 week): converted to Form A, with some loss in crystallinity | HPLC purity after storage ([3]; 2 week): ca. 96.3% | XRPD analysis after storage ([3]; 2 week): partially crystalline with peaks present corresponding with Form A | detection by HPLC analysis for the aqueous solubility [4]: could not be detected; also recorded: below the limit of quantification | aqueous solubility [4]: poor | XRPD after drying [7, 11]: lost some crystallinity and converted predominantly to Form A | XRPD after heating ([7]; heated to 120° C.): converted predominantly to Form A | DVS analysis observation [6]: contain solvent, which is lost as the relative humidity is increased | Post DVS XRPD (solid form) [6]: converted predominantly to Form A (traces of Form F remaining)

C=CC(=O)Nc1cccc(Nc2nc(Nc3ccc(N4CCN(C(C)=O)CC4)cc3OC)ncc2C(F)(F)F)c1 [Form G, N-(3-(2-(4-(4-acetylpiperazin-1-yl)-2-methoxyphenylamino)-5-(trifluoromethyl)pyrimidin-4-ylamino)phenyl)acrylamide]
HPLC purity after storage ([3]; 1 week): ca. 96.8% | XRPD analysis after storage ([3]; 1 week): converted predominantly to Form A, with some loss in crystallinity | HPLC purity after storage ([3]; 2 week): ca. 96.2% | XRPD analysis after storage ([3]; 2 week): converted predominantly to Form A, with some loss in crystallinity | aqueous solubility [4]: poor | XRPD after drying ([7]; 80° C. for 4 days): converted to Form A | XRPD after drying [7, 11]: converted to Form A | DVS analysis observation [6]: contain significant amounts of solvent that are lost as the relative humidity is increased | Post DVS XRPD (solid form) [6]: converted to Form A

C=CC(=O)Nc1cccc(Nc2nc(Nc3ccc(N4CCN(C(C)=O)CC4)cc3OC)ncc2C(F)(F)F)c1 [Form H, N-(3-(2-(4-(4-acetylpiperazin-1-yl)-2-methoxyphenylamino)-5-(trifluoromethyl)pyrimidin-4-ylamino)phenyl)acrylamide]
water pick-up of desolvated/dehydrated material [8]: picked up water upon standing at ambient conditions | XRPD after heating ([7]; heated to 115° C.): still corresponded with Form H, with some loss in crystallinity

C=CC(=O)Nc1cccc(Nc2nc(Nc3ccc(N4CCN(C(C)=O)CC4)cc3OC)ncc2C(F)(F)F)c1 [Form I, N-(3-(2-(4-(4-acetylpiperazin-1-yl)-2-methoxyphenylamino)-5-(trifluoromethyl)pyrimidin-4-ylamino)phenyl)acrylamide]
Purity after 1 week ([9]; closed container, 25° C.): 99.4% | XRPD Analysis after 1 week ([9]; closed container, 25° C.): Form I | Purity after 1 week [9, 12]: 99.3% | XRPD Analysis after 1 week [9, 12]: Form I; also recorded: (some loss in crystallinity) | Purity after 1 week ([9]; closed container, 80° C.): 99.2% | XRPD Analysis after 1 week ([9]; closed container, 80° C.): Form I; also recorded: (some loss in crystallinity) | Purity after 1 week ([9]; open container, 25° C.): 98.7% | XRPD Analysis after 1 week ([9]; open container, 25° C.): Form I | Purity after 1 week ([9]; open container, 40° C./75% RH): 98.9% | XRPD Analysis after 1 week ([9]; open container, 40° C./75% RH): Form I | Purity after 1 week ([9]; open container, 80° C.): 98.5% | XRPD Analysis after 1 week ([9]; open container, 80° C.): Form I; also recorded: (some loss in crystallinity) | solubility at 24 h ([10]; aqueous buffer, buffer pH 3 (citrate/phosphate), pH prior to analysis 2.26, ca. 24 hours): 23 µg/mL | solubility at 24 h ([10]; aqueous buffer, buffer pH 4.5 (citrate/phosphate), pH prior to analysis 3.38, ca. 24 hours): 2 µg/mL | Solubility ([10]; buffer pH 6.6 (citrate/phosphate), pH prior to analysis 5.04, ca. 24 hours): Not detected | XRPD of solids remaining after thermodynamic solubility experiment ([10]; pH 1, after 24 hours): mixture of Form I and possibly the HCl salt | XRPD of solids remaining after thermodynamic solubility experiment ([10]; pH 6.6, 4.5 and 3.0, after 24 hours): remained as Form I | solubility at 24 h ([10]; simulated gastric fluid, buffer pH 1 (KCl/HCl), pH prior to analysis 0.95, ca. 24 hours): 3270 µg/mL | Post DVS XRPD (solid form) [6]: remained as Form I | hygroscopicity (DVS) [6]: relatively non-hygroscopic | DVS mass uptake ([6]; Cycle 1, sorption 20-90% RH): ca. 0.66% | DVS rapid mass loss ([6]; Cycle 2, desorption, between 10-0% RH): ca. 2.7% | DVS mass decrease ([6]; Cycle 2, desorption, between 90-10% RH): ca. 1.2% | DVS moisture uptake ([6]; Cycle 3, sorption, between 0-20% RH): ca. 2.8%
